Source: publication PMC5132201, “Formylated MHC Class Ib Binding Peptides Activate Both Human and Mouse Neutrophils Primarily through Formyl Peptide Receptor 1” (PLoS ONE, 2016)
Square brackets hold non-standard residues; d marks the D form. Ends that are not written are not given here. Peptide text beside a SMILES is read from it. * marks the point of attachment. For = O=C*

Key:
H2-M3 = details: crystal structure study; cited from earlier work
Description: Much less is known about the murine Fprs. It is clear that mouse neutrophils express orthologous of FPR1 and FPR2 (Fpr1 and Fpr2, respectively), but the pharmacological similarities/differences between the human and mouse neutrophil receptors have not been characterized in detail. […] In addition to Fprs, another immune response system, the H2-M3 complex, has evolved in ...

FPR1 = experiment: NADPH-oxidase activity in human neutrophils pre-incubated with the FPR1 antagonist cyclosporine H; type: cell-based; details: for Effect of cyclosporine H on the peptide-induced activity: human neutrophils pre-incubated 5 min at 37°C with 1 μM cyclosporine H (FPR1 antagonist); for Preferred receptor: human neutrophils, from cyclosporine H / PBP10 sensitivity
Method: (§1) NADPH-oxidase activity was determined using isoluminol and HRP-enhanced chemiluminescence (CL) systems that allow for the determination of superoxide production. […] The tubes containing 4 U HRP and 10 μg/ml isoluminol together with the cells were equilibrated in the Biolumat for 10 min at 37°C, after which the stimulus (100 μl) was added. The light emission was recorded continuously.
(§2) Neutrophil NADPH-oxidase activity was measured by an isoluminol/HPR chemiluminescence system. […] (10 nM; time for addition indicated by an arrow). […] (1 μM) in the presence or absence (control) of FPR specific inhibitors. Abscissa, Time of study (min); ordinate, superoxide production (in arbitrary light units, cpmx10^-6). […] Data are expressed as mean ± SD from four independent experiments. Abscissa, agonist concentration (M); ordinate, superoxide production (percent of max).

human neutrophils = target: T1, human neutrophils (Homo sapiens, UniProt P21462); experiment: NADPH-oxidase activity (superoxide production), isoluminol/HRP chemiluminescence, human neutrophils; type: cell-based; details: for Concentration needed to induce full NADPH-oxidase activity: efficacy close to that of fMIFL; for EC50, NADPH-oxidase activity (superoxide production): isoluminol/HRP chemiluminescence, 37°C, peak response as percent of maximal response, mean of 3-4 independent experiments
T1 sequence (P21462 1-350): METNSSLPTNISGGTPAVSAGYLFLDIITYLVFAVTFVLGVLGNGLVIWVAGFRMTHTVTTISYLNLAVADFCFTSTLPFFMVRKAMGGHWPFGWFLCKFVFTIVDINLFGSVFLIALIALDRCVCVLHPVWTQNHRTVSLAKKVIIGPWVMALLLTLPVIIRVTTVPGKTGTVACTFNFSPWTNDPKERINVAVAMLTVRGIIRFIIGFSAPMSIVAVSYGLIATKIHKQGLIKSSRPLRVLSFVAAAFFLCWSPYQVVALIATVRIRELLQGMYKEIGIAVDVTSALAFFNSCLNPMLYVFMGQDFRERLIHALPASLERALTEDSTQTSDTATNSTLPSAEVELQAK

FPR2 = experiment: NADPH-oxidase activity in human neutrophils pre-incubated with the FPR2 antagonist PBP10; type: cell-based; details: human neutrophils pre-incubated 5 min at 37°C with 1 μM PBP10 (FPR2 antagonist)
Method: as §1, §2

Fpr2^-/- neutrophils = experiment: NADPH-oxidase activity in neutrophils from wild type versus Fpr2-/- mice; type: cell-based; details: mouse neutrophils; from WT versus Fpr2-/- cells
Description: Mice (10–16 weeks of age) were killed by cervical dislocation, the femurs and tibias were removed and freed of soft tissue attachments, and the extreme distal tip of each extremity was cut off. KRG without Ca^2+ and Mg^2+ (KRG-) was forced through the bone by using a 1-ml syringe with a 27-gauge needle. After dispersing cell clumps and removing the debris, the bone marrow granulocytes were isolated according to an earlier described procedure [26] with some modifications. Briefly, cell suspensions in 2 ml of KRG (−) were laid on top of a three-layer Percoll gradient (1.095, 1.085, and 1.070 g/ml). The density of each Percoll solution was verified using density marker beads. […] The cell number and population of bone marrow cells were determined by flow cytometry.
NADPH-oxidase activity was determined using isoluminol and HRP-enhanced chemiluminescence (CL) systems that allow for the determination of superoxide production [27, 28]. […] The light emission was recorded continuously.
Naïve bone marrow cells produce very low level of superoxide upon stimulation and to increase this production, the cells were routinely primed for one hour at RT follow by mouse recombinant TNF-α (10 ng/ml, final concentration) priming for a period of 20 min at 37°C, after which the cells were stimulated and ROS production was determined as described above.

[1] = target: T2, bone marrow derived mouse neutrophils (Mus musculus, UniProt P33766); details: for EC50, NADPH-oxidase activity (superoxide production): TNF-α primed bone marrow derived mouse neutrophils, isoluminol/HRP chemiluminescence, 37°C, peak response as percent of maximal response, mean of 3-4 independent experiments; for Relative potency, mouse versus human neutrophils: comparison of EC50 values of NADPH-oxidase activation in the two species
T2 sequence (P33766 1-364): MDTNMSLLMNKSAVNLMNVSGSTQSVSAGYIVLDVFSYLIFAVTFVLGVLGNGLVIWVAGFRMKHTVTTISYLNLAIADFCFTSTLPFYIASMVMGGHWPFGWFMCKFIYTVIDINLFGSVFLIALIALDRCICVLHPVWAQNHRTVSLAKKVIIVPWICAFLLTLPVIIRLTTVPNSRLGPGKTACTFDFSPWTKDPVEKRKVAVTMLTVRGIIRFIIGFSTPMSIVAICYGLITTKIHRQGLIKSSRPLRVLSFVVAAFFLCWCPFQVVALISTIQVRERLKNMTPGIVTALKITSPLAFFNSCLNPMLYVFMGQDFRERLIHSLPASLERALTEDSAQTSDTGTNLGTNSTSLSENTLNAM

M3 = details: high-, medium- and low-binders by induction of M3 expression on P388-M3 transfected cells; cited from earlier work
[2] = target: formyl peptide receptor 1 (human) (human (endogenous in neutrophils)) (UniProt P21462)
[3] = target: formyl peptide receptor 1 (mouse) (mouse (endogenous in bone marrow neutrophils)) (UniProt P33766)
[4] = target: formyl peptide receptor 1 (human) (human (endogenous in neutrophils)) (UniProt P21462); remark: listed apart in the source
[5] = target: formyl peptide receptor 1 (human) (human (endogenous in neutrophils)) (UniProt P21462); remark: listed apart in the source

CC[C@H](C)[C@H](NC(=O)[C@H](CC(N)=O)NC(=O)[C@@H](NC(=O)[C@H](Cc1ccccc1)NC(=O)[C@H](Cc1ccc(O)cc1)NC(=O)[C@H](CCSC)NC=O)[C@@H](C)CC)C(=O)N[C@@H](CC(C)C)C(=O)N[C@H](C(=O)N[C@@H](CC(C)C)C(=O)O)[C@@H](C)O (For-MYFINILTL-OH; C-terminus assumed)
Preference of H2-M3 for binding the N-formylated over the non-formylated peptide (H2-M3): 10^4 fold
Effect of cyclosporine H on the peptide-induced activity (FPR1): inhibited
Preferred receptor (FPR1): FPR1
Agonist efficacy (full/partial) (human neutrophils; human neutrophils, compared with fMLF or fMIFL): full agonist
Concentration needed to induce full NADPH-oxidase activity (human neutrophils; human neutrophils): around 100 nM
Effect of PBP10 on the peptide-induced activity (FPR2): no inhibition
Preferred receptor (Fpr2^-/- neutrophils): Fpr1
EC50 [1]: 14 nM
EC50, NADPH-oxidase activity (superoxide production) [1]: low nM range

fMFFLDA
M3 binding affinity group (M3): middle range
Relative potency, mouse versus human neutrophils [1]: very similar in the two species

GYFINILTL
Neutrophil activation (human neutrophils): Neither human nor mouse neutrophils could be activated
Neutrophil activation [1]: Neither human nor mouse neutrophils could be activated

fMIVVLV
M3 binding affinity group (M3): highest M3 affinity
EC50, NADPH-oxidase activity (superoxide production) (human neutrophils; human neutrophils): low nM range
EC50, NADPH-oxidase activity (superoxide production) [1]: low nM range
Relative potency, mouse versus human neutrophils [1]: more potent on mouse cells than on human cells

fMILLV
M3 binding affinity group (M3): highest M3 affinity
Concentration needed to induce full NADPH-oxidase activity (human neutrophils; human neutrophils): around 100 nM
EC50, NADPH-oxidase activity (superoxide production) (human neutrophils; human neutrophils): low nM range
EC50, NADPH-oxidase activity (superoxide production) [1]: low nM range
Relative potency, mouse versus human neutrophils [1]: equally potent

MYFINILTL
Effect of cyclosporine H on the peptide-induced activity (FPR1): not by cyclosporine H
Preferred receptor (FPR1): FPR2
NADPH-oxidase activity induced (human neutrophils; human neutrophils, concentrations lower than 1 μM): No activity
NADPH-oxidase activity induced (human neutrophils; human neutrophils, peptide 1 μM (Fig 1A inset)): very low level of activity
Effect of PBP10 on the peptide-induced activity (FPR2): inhibited by PBP10
NADPH-oxidase activity induced [1]: No activity

fMLFAAL
M3 binding affinity group (M3): lowest binding affinity
Potency rank among the peptides (human neutrophils; human neutrophils): most potent to activate human neutrophils
Concentration needed to induce full NADPH-oxidase activity (human neutrophils; human neutrophils): around 100 nM
Relative potency, mouse versus human neutrophils [1]: potencies were reversed

fMWYYLF
M3 binding affinity group (M3): lowest binding affinity
Relative potency, mouse versus human neutrophils [1]: more potent for murine cells than for human cells
Potency rank among the peptides ([1]; mouse neutrophils): most potent to activate mouse neutrophils

fGYFINILTL
Neutrophil activation (human neutrophils): Neither human nor mouse neutrophils could be activated
Neutrophil activation [1]: Neither human nor mouse neutrophils could be activated

fMIVIL
M3 binding affinity group (M3): highest M3 affinity
EC50, NADPH-oxidase activity (superoxide production) (human neutrophils; human neutrophils): low nM range
EC50, NADPH-oxidase activity (superoxide production) [1]: low nM range
Relative potency, mouse versus human neutrophils [1]: order of potency was reversed

For-[dM]YFINILTL [fmYFINILTL]
EC50 of superoxide release from human neutrophils [2]: 200 nM

For-MFLIDV [fMFLIDV]
EC50 of NADPH-oxidase activity in mouse neutrophils [3]: 1 nM
EC50 of NADPH-oxidase activity in human neutrophils [4]: 100 nM

For-MYFINILTL [f…]
EC50 of NADPH-oxidase activity (superoxide production, isoluminol/HRP chemiluminescence) in human neutrophils [5]: 5 nM
